Where “and” joins values, the source holds several entries; their conditions need not be identical. Equal values may be shown once. Inconclusive results and toxic doses are left out. No stated cut-off is given here; in the data, active means T/C of 150% or more; inactive means T/C below 125%.
System: L1210 leukemia ip in BDF1 mice, survival T/C
Assay: NCI In Vivo Anticancer Drug Screen. Data for tumor model L1210 Leukemia (intraperitoneal) in B6D2F1 (BDF1) mice
Conditions: endpoint: mean survival time, higher = longer survival
In short: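 Tumor was transplanted into mice, which were then dosed with test compound or vehicle alone. Survival was recorded for each group, and the treated figure was expressed relative to the control figure.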

[1] = dose: 100.0 mg/kg/injection, schedule: Q01DX009 (ip), vehicle: Klucel (hydroxypropylcellulose) (HPC)
[2] = dose: 200.0 mg/kg/injection, schedule: Q01DX009 (ip), vehicle: Klucel (hydroxypropylcellulose) (HPC)
[3] = dose: 100.0 mg/kg/injection, schedule: Q01DX009 (ip), vehicle: saline
[4] = dose: 100.0 mg/kg/injection, schedule: Q04DX003 (ip), vehicle: saline
[5] = dose: 200.0 mg/kg/injection, schedule: Q01DX009 (ip), vehicle: saline
[6] = dose: 200.0 mg/kg/injection, schedule: Q04DX003 (ip), vehicle: saline
[7] = dose: 400.0 mg/kg/injection, schedule: Q01DX009 (ip), vehicle: saline
[8] = dose: 400.0 mg/kg/injection, schedule: Q04DX003 (ip), vehicle: saline
[9] = dose: 400.0 mg/kg/injection, schedule: Q04DX002 (ip), vehicle: saline with Tween-80
[10] = dose: 100.0 mg/kg/injection, schedule: Q04DX003 (ip), vehicle: Klucel (hydroxypropylcellulose) (HPC)
[11] = dose: 200.0 mg/kg/injection, schedule: Q04DX003 (ip), vehicle: Klucel (hydroxypropylcellulose) (HPC)
[12] = dose: 100.0 mg/kg/injection, schedule: Q01DX001 (ip), vehicle: saline
[13] = dose: 400.0 mg/kg/injection, schedule: Q01DX009 (ip), vehicle: Klucel (hydroxypropylcellulose) (HPC)
[14] = dose: 200.0 mg/kg/injection, schedule: Q04DX003 (ip), vehicle: saline with Tween-80

Measured: T/C

Cc1ccc(NC(=O)N(CCCCl)N=O)cc1
inactive: dose: 25.0 mg/kg/injection, schedule: Q01DX009 (ip), vehicle: Klucel (hydroxypropylcellulose) (HPC) 103 % of control | dose: 50.0 mg/kg/injection, schedule: Q01DX009 (ip), vehicle: Klucel (hydroxypropylcellulose) (HPC) 93 % of control | dose: 59.0 mg/kg/injection, schedule: Q01DX009 (ip), vehicle: carboxymethylcellulose (CMC) 120 % of control | dose: 88.0 mg/kg/injection, schedule: Q01DX009 (ip), vehicle: carboxymethylcellulose (CMC) 117 % of control | dose: 100.0 mg/kg/injection, schedule: Q01DX001 (ip), vehicle: carboxymethylcellulose (CMC) 115 % of control | [1] 97 % of control | dose: 118.0 mg/kg/injection, schedule: Q01DX001 (sc), vehicle: olive oil, sesame oil, peanut oil 107 % of control | dose: 133.0 mg/kg/injection, schedule: Q01DX009 (ip), vehicle: carboxymethylcellulose (CMC) 88 % of control | dose: 177.0 mg/kg/injection, schedule: Q01DX001 (ip), vehicle: carboxymethylcellulose (CMC) 100 % of control and 113 % of control | dose: 177.0 mg/kg/injection, schedule: Q01DX001 (sc), vehicle: olive oil, sesame oil, peanut oil 107 % of control | dose: 200.0 mg/kg/injection, schedule: Q01DX001 (ip), vehicle: carboxymethylcellulose (CMC) 121 % of control | [2] 97 % of control | dose: 266.0 mg/kg/injection, schedule: Q01DX001 (ip), vehicle: carboxymethylcellulose (CMC) 105 % of control | dose: 266.0 mg/kg/injection, schedule: Q01DX001 (sc), vehicle: olive oil, sesame oil, peanut oil 102 % of control | dose: 400.0 mg/kg/injection, schedule: Q01DX001 (ip), vehicle: carboxymethylcellulose (CMC) 113 % of control and 119 % of control | dose: 400.0 mg/kg/injection, schedule: Q01DX001 (sc), vehicle: olive oil, sesame oil, peanut oil 107 % of control

CCOC(=O)c1nnc(SC)nc1SC
inactive: dose: 75.0 mg/kg/injection, schedule: Q01DX001 (ip), vehicle: alcohol 100 % of control | dose: 150.0 mg/kg/injection, schedule: Q01DX001 (ip), vehicle: alcohol 108 % of control

COc1cccc2c1CCC1=C2CC2C(=O)C1CCC2(C)O (stereo not drawn)
inactive: [3] 109 % of control | [4] 94 % of control | [5] 108 % of control | [6] 119 % of control | [7] 101 % of control | [8] 110 % of control

O=C1c2cccc3cccc(c23)C1(Br)C(Br)c1ccccc1 (stereo not drawn)
inactive: dose: 100.0 mg/kg/injection, schedule: Q04DX002 (ip), vehicle: saline with Tween-80 97 % of control | dose: 200.0 mg/kg/injection, schedule: Q04DX002 (ip), vehicle: saline with Tween-80 97 % of control | [9] 97 % of control

CN(C)c1ccnc(Cl)n1
inactive: dose: 16.0 mg/kg/injection, schedule: Q01DX Z (ip), vehicle: methylcellulose (MC) 97 % of control | dose: 31.0 mg/kg/injection, schedule: Q01DX Z (ip), vehicle: methylcellulose (MC) 96 % of control | dose: 62.0 mg/kg/injection, schedule: Q01DX Z (ip), vehicle: methylcellulose (MC) 90 % of control | dose: 125.0 mg/kg/injection, schedule: Q01DX Z (ip), vehicle: methylcellulose (MC) 92 % of control and 100 % of control | dose: 250.0 mg/kg/injection, schedule: Q01DX Z (ip), vehicle: methylcellulose (MC) 97 % of control

CCOC(=O)C1CCCN(S(=O)(=O)c2ccc(C)cc2)c2ccccc2C1=O (stereo not drawn)
inactive: [10] 93 % of control | [11] 102 % of control | dose: 400.0 mg/kg/injection, schedule: Q04DX003 (ip), vehicle: Klucel (hydroxypropylcellulose) (HPC) 94 % of control

O=C1NC(=O)C(=O)C(=O)N1
inactive: dose: 50.0 mg/kg/injection, schedule: Q01DX009 (ip), vehicle: saline 94 % of control | dose: 50.0 mg/kg/injection, schedule: Q04DX003 (ip), vehicle: saline 93 % of control | [12] 94 % of control | [3] 97 % of control | [4] 97 % of control | dose: 200.0 mg/kg/injection, schedule: Q01DX001 (ip), vehicle: saline 108 % of control | [5] 103 % of control | [6] 97 % of control

Cc1c2cc3c(cc2cc2c4cc5c(cc4cc[n+]12)OCO5)OCO3 (tested in a mixture with another compound)
inactive: dose: 5.5 mg/kg/injection, schedule: Q04DX003 (ip), vehicle: saline 110 % of control | dose: 6.25 mg/kg/injection, schedule: Q01DX009 (ip), vehicle: saline 110 % of control | dose: 8.3 mg/kg/injection, schedule: Q04DX003 (ip), vehicle: saline 108 % of control | dose: 12.5 mg/kg/injection, schedule: Q01DX009 (ip), vehicle: saline 89 % of control | dose: 12.5 mg/kg/injection, schedule: Q04DX003 (ip), vehicle: saline 98 % of control | dose: 18.7 mg/kg/injection, schedule: Q04DX003 (ip), vehicle: saline 93 % of control

CC1=CC(C)(C)NC(=S)N1
inactive: [1] 97 % of control | [4] 113 % of control | [2] 101 % of control | [6] 106 % of control | [13] 98 % of control | [8] 107 % of control

CCCCCCCCCCCCCCCCCCNC(=O)N1CCCCC1C (stereo not drawn)
inactive: [1] 89 % of control | [2] 96 % of control | [13] 100 % of control

Cc1c(-[n+]2ccccc2)[nH]c2ccccc12
inactive: dose: 5.0 mg/kg/injection, schedule: Q01DX001 (ip), vehicle: saline 103 % of control | dose: 10.0 mg/kg/injection, schedule: Q01DX001 (ip), vehicle: saline 103 % of control | dose: 20.0 mg/kg/injection, schedule: Q01DX001 (ip), vehicle: saline 101 % of control | dose: 40.0 mg/kg/injection, schedule: Q01DX001 (ip), vehicle: saline 104 % of control | dose: 80.0 mg/kg/injection, schedule: Q01DX001 (ip), vehicle: saline 106 % of control | [12] 92 % of control

CCn1c(Cl)c(C(=O)O)c2ccccc21
inactive: dose: 50.0 mg/kg/injection, schedule: Q04DX003 (ip), vehicle: Klucel (hydroxypropylcellulose) (HPC) 97 % of control | [10] 97 % of control | [11] 97 % of control

S=Cc1cccc2c1CCCC2
inactive: [3] 111 % of control | [5] 100 % of control | [7] 97 % of control

CCC(C)(O)C#Cc1ccc(C)nc1 (stereo not drawn)
inactive: dose: 100.0 mg/kg/injection, schedule: Q04DX003 (ip), vehicle: saline with Tween-80 97 % of control | [14] 96 % of control | dose: 400.0 mg/kg/injection, schedule: Q04DX003 (ip), vehicle: saline with Tween-80 94 % of control

COc1ccc2c(c1)CNC1c3cc(OC)c(O)cc3CC21 (stereo not drawn)
inactive: [14] 88 % of control

C[Si](C)(C)Cc1ccccc1F
inactive: dose: 25.6 mg/kg/injection, schedule: Q04DX002 (ip), vehicle: saline with Tween-80 101 % of control | dose: 64.0 mg/kg/injection, schedule: Q04DX002 (ip), vehicle: saline with Tween-80 93 % of control | dose: 160.0 mg/kg/injection, schedule: Q04DX002 (ip), vehicle: saline with Tween-80 104 % of control | [9] 90 % of control
